From PMC3198688, “Design and development of a peptide-based adiponectin receptor agonist for cancer treatment” (BMC Biotechnology, 2011)
Where two headings read alike, the source gives them in different places. Square brackets hold non-standard residues; d marks the D form. Peptide text beside a SMILES is read from it. Nva = CCC[C@H](N)C(=O)O

Legend:
[1] = tested on: MCF-7 breast cancer cells; experiment: Growth inhibition (cytostatic) screening in MCF-7 cells; type: cell-based, human
Procedure: Biological activity of the peptides was first assessed using MCF-7 breast cancer cells that are known to express AdipoR1 [38]. MCF-7 cell line was obtained from ATCC (Manassas, VA) and routinely grown in DMEM:F12 plus 5% calf serum (Cellgro Mediatech, Manassas, VA) at 37°C, 5% CO2. For screening experiments, MCF-7 cells were plated in 24-well plates at the concentration of 30,000 cells/well. After 12 h of culture in the growth medium, the cells were synchronized in serum-free medium (SFM) (DMEM:F12 supplemented with […] bovine serum albumin, 1 mM FeSO4 and 2 mM L-glutamine) for 24 h, and then shifted back to the full growth medium containing either gAd (Phoenix Secretomics, Burlingame, CA) at 50 ng/mL, individual peptides, or no test compounds. After 24 h, the cells were counted under the microscope with trypan-blue exclusion. Each experiment was performed in triplicate and repeated at least three times.
The effects of the lead active peptide 355 ([…]) on cell proliferation were tested in breast cancer cell lines (MCF-7, MDA-MB-231) and in glioblastoma cells (LN18), all obtained from ATCC and routinely cultured as described previously. The peptide was tested at 10 pM-100 μM concentrations under conditions described above under peptide screening.

[2] = biological target: T1, AdipoR1 extracellular loops (Homo sapiens, UniProt Q96A54); experiment: Screening of AdipoR1/peptide binding (ELISA plate, biotin-labeled loop peptides); settings: preliminary, qualitative study; biotin-labeled loop fragments; data not shown
T1 construct: biotin-labeled linear synthetic models of the 4 extracellular loops of AdipoR1; made in house; host or cells: chemical solid-phase peptide synthesis (Fmoc), no expression host
Source text: (§1) The 66 unmodified adiponectin array peptides were individually dried down to wells of an ELISA plate, and tested for binding to biotin-labeled linear synthetic models of the 4 extracellular loops of AdipoR1. The receptor/peptide interaction was detected by horseradish-peroxidase conjugated streptavidin.

[3] = tested on: AdipoR1 extracellular loops; experiment: as above; settings: preliminary, qualitative study; biotin-labeled loop fragments; data not shown
Source text: as §1

[4] = Peptide stability in whole mouse blood; type: in vitro ADME
Procedure: Sixty μg of ADP 355 were dissolved in 100 μL water, and 10 μL aliquots were mixed with 100 μL of freshly drawn mouse blood. After 30 min of incubation at 37°C, blood cells were centrifuged at 10,000 × g. Fifty μL serum was mixed with 50 μL phosphate buffered saline pH 6.8 (PBS), and serum proteins were precipitated by addition of 45 μL aqueous 15% trichloroacetic acid (TCA) for 10 min at 4°C. After centrifugation at 12,000 × g, the supernatant was neutralized with 0.1 M aqueous sodium hydroxide and 0.5 μL of this solution was mixed with 0.5 μL α-cyano-4-hydroxycinnamic acid (4 mg/mL in 60% aqueous acetonitrile containing 0.1% TFA) as matrix on a sample plate. Analysis was performed using a MALDI time-of-flight tandem mass spectrometer (MALDI-TOF/TOF-MS, 4700 proteomic analyzer, Applied Biosystems, Weiterstadt, Germany). Additionally, the neutralized supernatant was loaded on a Jupiter C18 RP-HPLC column (4.6 mm internal diameter, 150 mm length, 5 μm particle size, 30 nm pore size) previously calibrated with known amounts of ADP 355 dissolved in PBS. Absorbance was measured at 214 nm.

[5] = In vivo toxicity in CBA/J mice; settings: for Kidney weight / Liver weight / Spleen weight: CBA/J mice, day 5
Source text: On day 5, the mice were sacrificed by CO2 inhalation. The potential peptide elimination organs: the livers, spleens and kidneys were removed and weighed.

Row | SMILES | biological activity in cell growth inhibition assays [1] | binding to the first extracellular loop of AdipoR1 [2] | binding to the other extracellular loops of AdipoR1 [3] | stability in whole mouse blood after 30 min ([4]; freshly drawn whole mouse blood, 37°C, 30 min, 10 μL of 60 μg/100 μL peptide in 100 μL blood, TCA precipitation, MALDI-TOF/TOF-MS and C18 RP-HPLC (214 nm)) | stability in mouse blood or serum ([4]; mouse blood or serum, 37°C (abstract)) | Kidney weight ([5]; 5 mg/kg bolus ip) [g] | Liver weight ([5]; 5 mg/kg bolus ip) [g] | Spleen weight ([5]; 5 mg/kg bolus ip) [g] | Kidney weight ([5]; 10 mg/kg bolus ip) [g] | Liver weight ([5]; 10 mg/kg bolus ip) [g] | Spleen weight ([5]; 10 mg/kg bolus ip) [g] | Kidney weight ([5]; 25 mg/kg bolus ip) [g] | Liver weight ([5]; 25 mg/kg bolus ip) [g] | Spleen weight ([5]; 25 mg/kg bolus ip) [g] | Kidney weight ([5]; 50 mg/kg bolus ip) [g] | Liver weight ([5]; 50 mg/kg bolus ip) [g] | Spleen weight ([5]; 50 mg/kg bolus ip) [g] | signs of systemic toxicity (tremor, head tilt, reduced activity and squinting) ([5]; healthy CBA/J mice, bolus ip up to 50 mg/kg, observed for 4 days) | biological activity in cell growth inhibition assays ([1]; listed as fragment 157-162)
1 | CC[C@H](C)[C@H](NC(=O)[C@@H](N)CC(N)=O)C(=O)N1CCC[C@H]1C(=O)NCC(=O)N[C@@H](CC(C)C)C(=O)N[C@@H](Cc1ccc(O)cc1)C(=O)N[C@@H](Cc1ccc(O)cc1)C(=O)N[C@@H](Cc1ccccc1)C(=O)N[C@@H](C)C(=O)N[C@@H](Cc1ccc(O)cc1)C(N)=O [ADP 25, H-Asn-Ile-Pro-Gly-Leu-Tyr-Tyr-Phe-Ala-Tyr-NH2] (H-NIPGLYYFAY-NH2) | fully active | bound the first extracellular loop of AdipoR1 | not other loops |  |  |  |  |  |  |  |  |  |  |  |  |  |  |  | 
2 | CCC[C@H](NC(=O)[C@@H]1CCCN1C(=O)[C@@H](NC(=O)[C@H](N)CC(N)=O)[C@@H](C)CC)C(=O)N[C@@H](CC(C)C)C(=O)N[C@@H](Cc1ccc(O)cc1)C(=O)N[C@H](CO)C(=O)N[C@@H](Cc1ccccc1)C(=O)N[C@@H](C)C(=O)N[C@H](CO)C(N)=O [ADP 355, H-DAsn-Ile-Pro-Nva-Leu-Tyr-DSer-Phe-Ala-DSer-NH2] (H-[dN]IP[Nva]LY[dS]FA[dS]-NH2) |  |  |  | without noticeable degradation | at least 30 min | 0.30 | 1.02 | 0.07 | 0.29 | 1.09 | 0.06 | 0.35 | 1.24 | 0.07 | 0.31 | 1.07 | 0.07 | no signs of systemic toxicity | 
3 | CC(C)C[C@H](NC(=O)CNC(=O)[C@@H]1CCCN1)C(=O)N[C@@H](Cc1ccc(O)cc1)C(=O)N[C@@H](Cc1ccc(O)cc1)C(=O)N[C@@H](Cc1ccccc1)C(N)=O [Middle 6 of 25, H-Pro-Gly-Leu-Tyr-Tyr-Phe -NH2] (H-PGLYYF-NH2) | inactive |  |  |  |  |  |  |  |  |  |  |  |  |  |  |  |  |  | did not exhibit any biological activity
